In ChEMBL document CHEMBL1201862, “PubChem BioAssay data set” (2004):
One block for each compound: values may come before it. The source made the active and inactive calls.

Legend:
[1] = biological target: T1, E3 ubiquitin-protein ligase XIAP (Homo sapiens, UniProt P98170); assay: small molecules displacing peptide from XIAP – biochemical, IAP family, fluorescence polarization (AID 1018); assay type: functional
[2] = biological target: T1, E3 ubiquitin-protein ligase XIAP; assay: Counter Screen using XIAP-Bir3 for Chemical Antagonists of Bir1/2 domains of IAP-family anti-apoptotic proteins. [Related pubchem assays (depositor defined):AID1018, AID1449, AID1514, AID1638, AID1749, AID1750, AID488957, AID488963]
[3] = viability of uninfected HEp-2 cells – cell-based, HTS, cytotoxicity control for RSV inhibitor project, dose response (AID 2410); assay type: functional; conditions: human respiratory syncytial virus
[4] = biological target: Peroxisome proliferator-activated receptor gamma (Homo sapiens, UniProt P37231); assay: PPARg transcriptional activation, reporter cells – cell-based, luminescence, assay provider, dose response (AID 504447); assay type: functional
HEK293 = assay: SAR analysis of compounds that are cytotoxic to HEK293 - Set 3. [Related pubchem assays (depositor defined):AID1575, AID1578, AID1848, AID1849, AID2001, AID2333, AID2334, AID2335, AID2337, AID2469]; assay type: functional, cell-based; conditions: Homo sapiens
Tumor necrosis factor = Tumor necrosis factor (Homo sapiens, UniProt P01375); assay: analog potency on TNFa NF-kB signaling – cell-based, set 3, SAR follow-up (AID 2801); assay type: functional
[5] = biological target: Nucleotide-binding oligomerization domain-containing protein 2 (Homo sapiens, UniProt Q9HC29); assay: inhibition of MDP-driven NOD2 NF-kB reporter – cell-based, set 3, SAR follow-up (AID 2799); assay type: functional
[6] = biological target: Nucleotide-binding oligomerization domain-containing protein 1 (Homo sapiens, UniProt Q9Y239); assay: SAR analysis of compounds that inhibit NOD1 - Set 3. [Related pubchem assays (depositor defined):AID1566, AID1575, AID1578, AID1849, AID1852, AID2333, AID2335, AID2466]; assay type: functional
[7] = biological target: Kappa-type opioid receptor (Homo sapiens, UniProt P41145); assay: SAR analysis of small molecule agonists of the kappa opioid receptor via a luminescent beta-arrestin assay - Set 3. [Related pubchem assays (depositor defined):AID1777, AID1785, AID1786, AID1966, AID2133, AID2136, AID2284, AID2500]; assay type: functional
[8] = biological target: DNA damage-inducible transcript 3 protein (Mus musculus, UniProt P35639); assay type: functional, Cricetulus griseus
Sequence of DNA damage-inducible transcript 3 protein (P35639 whole entry): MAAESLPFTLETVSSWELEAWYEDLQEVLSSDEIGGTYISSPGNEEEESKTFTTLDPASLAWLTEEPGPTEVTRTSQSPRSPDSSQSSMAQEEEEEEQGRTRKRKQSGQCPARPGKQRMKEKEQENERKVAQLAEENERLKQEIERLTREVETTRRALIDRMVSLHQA

T1 sequence (P98170 whole entry): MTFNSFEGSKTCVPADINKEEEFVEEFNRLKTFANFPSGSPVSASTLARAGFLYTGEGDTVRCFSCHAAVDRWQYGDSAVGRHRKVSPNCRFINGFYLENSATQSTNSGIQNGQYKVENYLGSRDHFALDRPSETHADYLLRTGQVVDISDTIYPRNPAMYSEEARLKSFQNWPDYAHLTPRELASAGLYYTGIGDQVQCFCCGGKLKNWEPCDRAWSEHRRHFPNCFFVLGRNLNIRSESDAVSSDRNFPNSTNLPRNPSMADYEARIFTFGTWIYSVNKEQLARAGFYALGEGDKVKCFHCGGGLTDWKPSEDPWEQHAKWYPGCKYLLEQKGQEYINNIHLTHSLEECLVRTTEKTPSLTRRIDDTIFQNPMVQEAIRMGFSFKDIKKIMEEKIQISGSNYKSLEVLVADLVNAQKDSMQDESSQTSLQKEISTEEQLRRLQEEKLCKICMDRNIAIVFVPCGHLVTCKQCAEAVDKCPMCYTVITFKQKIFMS
Sequence of Peroxisome proliferator-activated receptor gamma (P37231 whole entry): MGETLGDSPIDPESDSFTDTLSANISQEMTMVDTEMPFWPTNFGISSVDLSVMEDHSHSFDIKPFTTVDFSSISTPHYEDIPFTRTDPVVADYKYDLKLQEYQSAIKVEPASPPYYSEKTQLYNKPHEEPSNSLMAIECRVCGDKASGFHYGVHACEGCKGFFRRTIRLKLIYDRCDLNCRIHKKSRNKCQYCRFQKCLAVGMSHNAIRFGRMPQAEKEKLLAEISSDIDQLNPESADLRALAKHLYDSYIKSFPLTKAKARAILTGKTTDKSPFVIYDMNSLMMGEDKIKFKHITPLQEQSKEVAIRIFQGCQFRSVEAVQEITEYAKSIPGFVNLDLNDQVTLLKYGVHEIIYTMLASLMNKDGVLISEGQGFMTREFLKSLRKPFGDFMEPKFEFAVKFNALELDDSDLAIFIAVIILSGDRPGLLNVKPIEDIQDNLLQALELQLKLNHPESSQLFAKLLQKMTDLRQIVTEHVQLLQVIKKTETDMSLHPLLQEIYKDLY
Sequence of Kappa-type opioid receptor (P41145 whole entry): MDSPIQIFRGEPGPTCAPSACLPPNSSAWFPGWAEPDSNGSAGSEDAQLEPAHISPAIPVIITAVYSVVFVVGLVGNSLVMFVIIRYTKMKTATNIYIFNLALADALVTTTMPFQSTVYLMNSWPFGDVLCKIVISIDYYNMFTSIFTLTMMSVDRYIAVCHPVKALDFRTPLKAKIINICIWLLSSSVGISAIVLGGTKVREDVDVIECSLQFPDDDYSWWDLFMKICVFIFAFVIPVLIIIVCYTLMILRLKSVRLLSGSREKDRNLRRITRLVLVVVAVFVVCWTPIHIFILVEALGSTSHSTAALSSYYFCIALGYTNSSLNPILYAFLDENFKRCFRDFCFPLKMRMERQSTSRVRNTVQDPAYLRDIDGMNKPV
Sequence of Nucleotide-binding oligomerization domain-containing protein 2 (Q9HC29 whole entry, the tested form may be a part): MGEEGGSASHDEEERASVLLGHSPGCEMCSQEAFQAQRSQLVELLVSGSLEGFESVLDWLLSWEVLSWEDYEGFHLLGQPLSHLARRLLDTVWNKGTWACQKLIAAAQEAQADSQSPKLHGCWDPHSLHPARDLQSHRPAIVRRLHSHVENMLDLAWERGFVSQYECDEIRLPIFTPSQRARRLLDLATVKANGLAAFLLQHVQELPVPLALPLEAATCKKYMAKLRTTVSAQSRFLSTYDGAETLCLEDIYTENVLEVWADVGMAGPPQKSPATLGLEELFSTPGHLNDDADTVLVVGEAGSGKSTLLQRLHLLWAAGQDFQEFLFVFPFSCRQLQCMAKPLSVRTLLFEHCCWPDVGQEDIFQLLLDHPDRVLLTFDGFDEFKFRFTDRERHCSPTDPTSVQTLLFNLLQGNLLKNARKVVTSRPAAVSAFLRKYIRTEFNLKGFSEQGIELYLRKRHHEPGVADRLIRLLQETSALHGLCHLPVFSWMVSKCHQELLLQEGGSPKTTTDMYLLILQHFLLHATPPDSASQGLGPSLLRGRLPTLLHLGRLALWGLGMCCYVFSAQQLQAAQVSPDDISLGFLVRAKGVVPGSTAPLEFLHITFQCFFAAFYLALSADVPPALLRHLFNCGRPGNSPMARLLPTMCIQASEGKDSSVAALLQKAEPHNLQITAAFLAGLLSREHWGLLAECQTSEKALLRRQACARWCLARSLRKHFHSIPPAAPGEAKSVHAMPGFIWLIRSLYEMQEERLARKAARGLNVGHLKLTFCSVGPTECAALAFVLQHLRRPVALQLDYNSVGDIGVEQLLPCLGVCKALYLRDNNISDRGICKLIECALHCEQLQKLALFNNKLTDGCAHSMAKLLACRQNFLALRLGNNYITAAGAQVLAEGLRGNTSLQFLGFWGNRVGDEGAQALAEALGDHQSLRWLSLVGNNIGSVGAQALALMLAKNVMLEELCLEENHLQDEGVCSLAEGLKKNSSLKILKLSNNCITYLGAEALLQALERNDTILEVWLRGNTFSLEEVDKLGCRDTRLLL
Sequence of Tumor necrosis factor (P01375 whole entry, the tested form may be a part): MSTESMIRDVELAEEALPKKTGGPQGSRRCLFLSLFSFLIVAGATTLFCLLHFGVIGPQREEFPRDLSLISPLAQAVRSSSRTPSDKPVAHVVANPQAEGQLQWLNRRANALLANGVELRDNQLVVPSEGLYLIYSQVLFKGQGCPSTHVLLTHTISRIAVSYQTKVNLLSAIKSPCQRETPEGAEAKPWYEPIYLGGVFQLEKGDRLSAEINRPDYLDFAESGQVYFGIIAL
Sequence of Nucleotide-binding oligomerization domain-containing protein 1 (Q9Y239 whole entry, the tested form may be a part): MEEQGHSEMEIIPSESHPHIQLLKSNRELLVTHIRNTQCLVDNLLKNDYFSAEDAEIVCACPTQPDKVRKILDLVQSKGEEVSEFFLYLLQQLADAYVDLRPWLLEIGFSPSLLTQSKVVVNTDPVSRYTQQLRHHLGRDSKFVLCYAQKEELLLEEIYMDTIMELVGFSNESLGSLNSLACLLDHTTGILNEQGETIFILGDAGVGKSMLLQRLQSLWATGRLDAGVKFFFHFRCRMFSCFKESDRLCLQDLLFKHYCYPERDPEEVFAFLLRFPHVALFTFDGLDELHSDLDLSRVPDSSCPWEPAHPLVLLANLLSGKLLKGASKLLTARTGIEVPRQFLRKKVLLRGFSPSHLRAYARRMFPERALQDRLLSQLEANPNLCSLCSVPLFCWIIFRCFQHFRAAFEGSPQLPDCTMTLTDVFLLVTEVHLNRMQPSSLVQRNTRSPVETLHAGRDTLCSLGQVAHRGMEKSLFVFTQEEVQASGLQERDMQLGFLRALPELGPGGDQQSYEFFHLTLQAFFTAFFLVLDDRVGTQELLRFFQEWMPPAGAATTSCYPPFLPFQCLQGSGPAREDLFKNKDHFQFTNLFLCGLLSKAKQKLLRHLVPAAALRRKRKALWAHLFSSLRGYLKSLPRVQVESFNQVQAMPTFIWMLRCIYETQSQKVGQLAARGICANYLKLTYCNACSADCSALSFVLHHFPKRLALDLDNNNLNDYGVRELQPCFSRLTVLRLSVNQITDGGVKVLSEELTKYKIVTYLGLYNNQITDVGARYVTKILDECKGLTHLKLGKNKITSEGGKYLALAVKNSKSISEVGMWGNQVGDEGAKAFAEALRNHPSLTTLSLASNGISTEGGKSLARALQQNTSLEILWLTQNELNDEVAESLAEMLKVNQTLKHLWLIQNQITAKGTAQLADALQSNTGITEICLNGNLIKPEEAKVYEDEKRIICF

IC50 [1]: > 100 µM (not active)
IC50 [2]: > 100 µM (inactive)
Compound: CC(=O)NCCc1csc(-c2ccccc2)n1

EC50 [4]: 1.6 µM (active)
Compound: CCOc1ccc(C2c3[nH]c4ccccc4c3CCN2Cc2cccn2-c2ncccn2)cc1 (stereo not given)
CC50 [3]: 16 µM (active)

Compound: Cc1ccccc1S(=O)(=O)n1c(N)nc2ccccc21
IC50 (HEK293): > 20 µM (inactive)
IC50 (Tumor necrosis factor): > 20 µM (inactive)
IC50 [5]: > 20 µM (inactive)
IC50 [6]: > 20 µM (inactive)

EC50 [7]: > 20 µM (inactive)
Compound: c1ccc(CSc2nnc(-c3ccccn3)n2Cc2cccnc2)cc1

Compound: COC(=O)Oc1ccc(/C=N/NC(=O)CSCc2ccccc2Br)cc1OC
Absolute IC50 (CHOP) [8]: 10 µM
